Test system: 454973-116-R2-J3-PDC spheroids, percent test/control viability
Assay: Anticancer human tumor 454973-116-R2-J3-PDC patient-derived pancreatic carcinoma cell line growth inhibition [CLK]
Settings: spheroids with HUVEC and MSC; for IC50: curve of first compound; for viability, T/C: stronger effect = lower value
Outline: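 Multi-cell-type spheroids combined patient-derived tumor cells with HUVEC endothelial cells and human mesenchymal stem cells. Paired agents were dosed in half-log steps down from about clinical Cmax, or from 10 microM where Cmax was unknown.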

[1] = second compound 0.0316 µM, first compound 0.0316 µM
[2] = second compound 0.0316 µM, first compound 0.1 µM
[3] = second compound 0.0316 µM, first compound 0.316 µM
[4] = second compound 0.0316 µM, first compound 1 µM
[5] = second compound 0.1 µM, first compound 0.0316 µM
[6] = second compound 0.1 µM, first compound 0.1 µM
[7] = second compound 0.1 µM, first compound 0.316 µM
[8] = second compound 0.1 µM, first compound 1 µM
[9] = second compound 0.316 µM, first compound 0.0316 µM
[10] = second compound 0.316 µM, first compound 0.1 µM
[11] = second compound 0.316 µM, first compound 0.316 µM
[12] = second compound 0.316 µM, first compound 1 µM
[13] = second compound 1 µM, first compound 0.0316 µM
[14] = second compound 1 µM, first compound 0.1 µM
[15] = second compound 1 µM, first compound 0.316 µM
[16] = second compound 1 µM, first compound 1 µM
[17] = second compound 3.16 µM, first compound 0.0316 µM
[18] = second compound 3.16 µM, first compound 0.1 µM
[19] = second compound 3.16 µM, first compound 0.316 µM
[20] = second compound 3.16 µM, first compound 1 µM
[21] = second compound 10 µM, first compound 0.0316 µM
[22] = second compound 10 µM, first compound 0.1 µM
[23] = second compound 10 µM, first compound 0.316 µM
[24] = second compound 10 µM, first compound 1 µM
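Also: spheroids exposed to compounds for 7 days before readout.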

## CC(Nc1ccc2c(c1)OCCn1cc(N3C(=O)OCC3C(F)F)nc1-2)C(N)=O (centres undefined) + CNC(=O)c1ccc(Nc2nc(OC3CCCC3)c3c(-c4ccc5nc(C)oc5c4)c[nH]c3n2)c(OC)c1
Second compound 0.0316 µM
  IC50: > 10000 nM
Second compound 0.1 µM
  IC50: 5040 nM
Second compound 0.316 µM
  IC50: 467 nM
Second compound 1 µM
  IC50: < 31.6 nM
Second compound 3.16 µM
  IC50: < 31.6 nM
Second compound 10 µM
  IC50: < 31.6 nM
[1]
  viability, T/C: 98.4%
[2]
  viability, T/C: 79.5%
[3]
  viability, T/C: 80%
[4]
  viability, T/C: 70.7%
Second compound 0.0316 µM, first compound 3.16 µM
  viability, T/C: 67.9%
Second compound 0.0316 µM, first compound 10 µM
  viability, T/C: 46%
[5]
  viability, T/C: 96.8%
[6]
  viability, T/C: 86.4%
[7]
  viability, T/C: 74.9%
[8]
  viability, T/C: 59%
Second compound 0.1 µM, first compound 3.16 µM
  viability, T/C: 58.6%
Second compound 0.1 µM, first compound 10 µM
  viability, T/C: 43%
[9]
  viability, T/C: 54.8%
[10]
  viability, T/C: 54.4%
[11]
  viability, T/C: 55.6%
[12]
  viability, T/C: 41.2%
Second compound 0.316 µM, first compound 3.16 µM
  viability, T/C: 36.8%
Second compound 0.316 µM, first compound 10 µM
  viability, T/C: 30.3%
[13]
  viability, T/C: 31.1%
[14]
  viability, T/C: 26.9%
[15]
  viability, T/C: 22.5%
[16]
  viability, T/C: 19.7%
Second compound 1 µM, first compound 3.16 µM
  viability, T/C: 16.9%
Second compound 1 µM, first compound 10 µM
  viability, T/C: 13.5%
[17]
  viability, T/C: 23.5%
[18]
  viability, T/C: 26.3%
[19]
  viability, T/C: 23.5%
[20]
  viability, T/C: 21.5%
Second compound 3.16 µM, first compound 3.16 µM
  viability, T/C: 14.7%
Second compound 3.16 µM, first compound 10 µM
  viability, T/C: 13.5%
[21]
  viability, T/C: 24.3%
[22]
  viability, T/C: 22.8%
[23]
  viability, T/C: 21.1%
[24]
  viability, T/C: 19.7%
Second compound 10 µM, first compound 3.16 µM
  viability, T/C: 13.3%
Second compound 10 µM, first compound 10 µM
  viability, T/C: 11.1%

## CCN1CCN(Cc2ccc(Nc3ncc(F)c(-c4cc(F)c5nc(C)n(C(C)C)c5c4)n3)nc2)CC1 + CNC(=O)c1ccc(Nc2nc(OC3CCCC3)c3c(-c4ccc5nc(C)oc5c4)c[nH]c3n2)c(OC)c1
Second compound 0.0316 µM
  IC50: > 1000 nM
Second compound 0.1 µM
  IC50: > 1000 nM
Second compound 0.316 µM
  IC50: < 3.16 nM
Second compound 1 µM
  IC50: < 3.16 nM
Second compound 3.16 µM
  IC50: < 3.16 nM
Second compound 10 µM
  IC50: < 3.16 nM
Second compound 0.0316 µM, first compound 0.00316 µM
  viability, T/C: 103%
Second compound 0.0316 µM, first compound 0.01 µM
  viability, T/C: 90.4%
[1]
  viability, T/C: 82.8%
[2]
  viability, T/C: 69.1%
[3]
  viability, T/C: 67.2%
[4]
  viability, T/C: 60.4%
Second compound 0.1 µM, first compound 0.00316 µM
  viability, T/C: 96.8%
Second compound 0.1 µM, first compound 0.01 µM
  viability, T/C: 84.7%
[5]
  viability, T/C: 79.2%
[6]
  viability, T/C: 67.2%
[7]
  viability, T/C: 63.4%
[8]
  viability, T/C: 56.2%
Second compound 0.316 µM, first compound 0.00316 µM
  viability, T/C: 44.8%
Second compound 0.316 µM, first compound 0.01 µM
  viability, T/C: 44.4%
[9]
  viability, T/C: 54.5%
[10]
  viability, T/C: 55.6%
[11]
  viability, T/C: 52.5%
[12]
  viability, T/C: 63.6%
Second compound 1 µM, first compound 0.00316 µM
  viability, T/C: 34.4%
Second compound 1 µM, first compound 0.01 µM
  viability, T/C: 34.1%
[13]
  viability, T/C: 39%
[14]
  viability, T/C: 43%
[15]
  viability, T/C: 43.3%
[16]
  viability, T/C: 47%
Second compound 3.16 µM, first compound 0.00316 µM
  viability, T/C: 30.6%
Second compound 3.16 µM, first compound 0.01 µM
  viability, T/C: 35.5%
[17]
  viability, T/C: 37.2%
[18]
  viability, T/C: 39.1%
[19]
  viability, T/C: 38.5%
[20]
  viability, T/C: 46.2%
Second compound 10 µM, first compound 0.00316 µM
  viability, T/C: 27.5%
Second compound 10 µM, first compound 0.01 µM
  viability, T/C: 27%
[21]
  viability, T/C: 33.5%
[22]
  viability, T/C: 37.8%
[23]
  viability, T/C: 41.8%
[24]
  viability, T/C: 47.3%
